Values of other authors as cited in article PMC7172884 (Journal of Molecular Biology, 2006).
pIC50: −log10 of the molar value.

How the values were obtained:
HAV 3C = biological target: T1, HAV 3C (Human hepatitis A virus genotype IB, UniProt P08617); details: in vitro, partial viral polyprotein (ΔP1-2A-2B) as substrate
T1 sequence (P08617 1520-1738 limits assumed): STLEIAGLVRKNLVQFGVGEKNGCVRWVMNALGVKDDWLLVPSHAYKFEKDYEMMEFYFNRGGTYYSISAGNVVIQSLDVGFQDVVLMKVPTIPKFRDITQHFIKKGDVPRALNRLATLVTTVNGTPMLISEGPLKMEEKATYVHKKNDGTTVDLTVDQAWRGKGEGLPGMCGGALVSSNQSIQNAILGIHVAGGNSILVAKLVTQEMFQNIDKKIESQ

HAV = details: HAV-infected cells, inhibitor at 5 μM

N-acetyl-leucyl-alanyl-alanyl-(N,N-dimethyl)-glutamine-fluoromethylketone [inhibitor Ia]
pIC50 (HAV 3C): 4.39 | reduction of viral yield (HAV): 25 fold
